# Assay results: patent US20020137929A1, “1 - (3-heterocyclylphenyl) isothiourea, -isourea, -guanidine and -amidine herbicidal agents” (Intellectual Property Department, BASF Aktiengesellschaft, priority 1998, published 2002)
# Legend:
# [1] = tested on: CHEAL (Lambsquarters, Common); experiment: Preemergence herbicidal evaluation; assay type: in vivo, Chenopodium album; details: rated 4-5 weeks after treatment, rating scale 0-9
# Outline: (§1)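 Sown cups got a single aqueous acetone spray of test compound (roughly 0.0156–0.500 kg/ha) before seedlings emerged. Evaluation, 4–5 weeks on, used a 0–9 visual scale covering plant stand, vigor, size, malformation, chlorosis and general appearance compared with controls.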
# ABUTH (Velvetleaf) = experiment: Preemergence herbicidal evaluation; assay type: in vivo, Abutilon theophrasti; details: rated 4-5 weeks after treatment, rating scale 0-9
# Outline: as §1
# MOOVA (Monochoria) = experiment: Preemergence weed control under flooded paddy conditions; assay type: in vivo, Monochoria vaginalis; details: rated 3-4 weeks after treatment
# Outline: (§2)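 Seeds or propagules sown in top 0.5 cm of silt loam soil, flooded 1.5 to 3 cm above surface throughout. Compound in 50/50 v/v aqueous/acetone pipetted into flood water at about 0.0313 to 0.500 kg/ha. Visual 0-9 rating versus control after three to four weeks in greenhouse.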
# [2] = tested on: CHEAL (Lambsquarters, Common); experiment: Postemergence herbicidal evaluation; assay type: in vivo, Chenopodium album; details: postemergence
# Outline: (§3)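 Visual 0-9 injury score (stand, vigor, malformation, size, chlorosis, appearance vs untreated) taken four to five weeks post-spray, averaged across repeat tests. Test plants about two weeks old; foliar spray of acetone/water (1:1) with 0.5% surfactant delivering ~0.0156-0.500 kg active/ha.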
# ORYSAT (Rice, Tebonnet) = experiment: Preemergence herbicidal evaluation; assay type: in vivo, Oryza sativa, (L.) Tebonnet; details: rated 4-5 weeks after treatment, rating scale 0-9
# Outline: as §1
# ECHCG (Barnyardgrass) = experiment: Postemergence herbicidal evaluation; assay type: in vivo, Echinochloa crus-galli; details: postemergence
# Outline: as §3
# [3] = tested on: SAGPY (Arrowhead (Pygmaea)); experiment: Preemergence weed control under flooded paddy conditions; assay type: in vivo, Sagittaria pygmaea; details: rated 3-4 weeks after treatment
# Outline: as §2
# AMBEL (Ragweed, Common) [4] = experiment: Preemergence herbicidal evaluation; assay type: in vivo, Ambrosia artemisifolia; details: rated 4-5 weeks after treatment, rating scale 0-9
# Outline: as §1
# [5] = tested on: TRZAWR (Wheat, Winter, cv Riband); experiment: Postemergence herbicidal evaluation; assay type: in vivo, Triticum aestivum; details: postemergence
# Outline: as §3
# CASOB (Sicklepod) [6] = experiment: Postemergence herbicidal evaluation; assay type: in vivo, Cassia obtusifolia; details: postemergence
# Outline: as §3
# [7] = tested on: GLXMAW (Soybean, Williams); experiment: Preemergence herbicidal evaluation; assay type: in vivo, Glycine max, (L.) Merr. cv Williams; details: rated 4-5 weeks after treatment, rating scale 0-9
# Outline: as §1
# [8] = tested on: IPOHE (Morningglory, Ivyleaf); experiment: Preemergence herbicidal evaluation; assay type: in vivo, Ipomoea hederacea; details: rated 4-5 weeks after treatment, rating scale 0-9
# Outline: as §1
# [9] = tested on: IPOHE (Morningglory, Ivyleaf); experiment: Postemergence herbicidal evaluation; assay type: in vivo, Ipomoea hederacea; details: postemergence
# Outline: as §3
# AMBEL (Ragweed, Common) [10] = experiment: Postemergence herbicidal evaluation; assay type: in vivo, Ambrosia artemisifolia; details: postemergence
# Outline: as §3
# [11] = tested on: GLXMAW (Soybean, Williams); experiment: Postemergence herbicidal evaluation; assay type: in vivo, Glycine max, (L.) Merr. cv Williams; details: postemergence
# Outline: as §3
# CASOB (Sicklepod) [12] = experiment: Preemergence herbicidal evaluation; assay type: in vivo, Cassia obtusifolia; details: rated 4-5 weeks after treatment, rating scale 0-9
# Outline: as §1
compound,measurement,setting,value
"Cn1c(C(F)(F)F)cc(=O)n(-c2cc(N=C3SCC(=O)N3Cc3cccc(C(F)(F)F)c3)c(Cl)cc2F)c1=O [Compound 142, 3-{4-Chloro-2-fluoro-5-{{3-[m-(trifluoromethyl)benzyl]-4-oxo-2-thiazolidinylidene}-amino}phenyl}-1-methyl-6-(trifluoromethyl)-2,4(1H,3H)-pyrimidinedione]",Preemergence herbicidal rating CHEAL,[1]; rate 0.0156 kg/ha,4.0
same,Preemergence herbicidal rating CHEAL,[1]; rate 0.0313 kg/ha,3.0
same,Preemergence herbicidal rating CHEAL,[1]; rate 0.0625 kg/ha,9.0
same,Preemergence herbicidal rating CHEAL,[1]; rate 0.1250 kg/ha,9.0
same,Preemergence herbicidal rating CHEAL,[1]; rate 0.2500 kg/ha,9.0
same,Preemergence herbicidal rating ABUTH,ABUTH (Velvetleaf); rate 0.0156 kg/ha,0.0
same,Preemergence herbicidal rating ABUTH,ABUTH (Velvetleaf); rate 0.0313 kg/ha,1.0
same,Preemergence herbicidal rating ABUTH,ABUTH (Velvetleaf); rate 0.0625 kg/ha,1.0
same,Preemergence herbicidal rating ABUTH,ABUTH (Velvetleaf); rate 0.1250 kg/ha,4.0
same,Preemergence herbicidal rating ABUTH,ABUTH (Velvetleaf); rate 0.2500 kg/ha,9.0
same,"herbicidal effect rating, MOOVA",MOOVA (Monochoria); 0.0313 kg/ha,6.0
same,"herbicidal effect rating, MOOVA",MOOVA (Monochoria); 0.0625 kg/ha,7.0
same,"herbicidal effect rating, MOOVA",MOOVA (Monochoria); 0.1250 kg/ha,9.0
same,"herbicidal effect rating, MOOVA",MOOVA (Monochoria); 0.2500 kg/ha,8.0
same,herbicidal rating CHEAL,[2]; rate 0.0156 kg/ha,4.0
same,herbicidal rating CHEAL,[2]; rate 0.0313 kg/ha,9.0
same,herbicidal rating CHEAL,[2]; rate 0.0625 kg/ha,9.0
same,Preemergence herbicidal rating ORYSAT,"ORYSAT (Rice, Tebonnet); rate 0.0156 kg/ha",0.0
same,Preemergence herbicidal rating ORYSAT,"ORYSAT (Rice, Tebonnet); rate 0.0313 kg/ha",0.0
same,Preemergence herbicidal rating ORYSAT,"ORYSAT (Rice, Tebonnet); rate 0.0625 kg/ha",0.0
same,Preemergence herbicidal rating ORYSAT,"ORYSAT (Rice, Tebonnet); rate 0.1250 kg/ha",1.0
same,Preemergence herbicidal rating ORYSAT,"ORYSAT (Rice, Tebonnet); rate 0.2500 kg/ha",0.0
same,herbicidal rating ECHCG,ECHCG (Barnyardgrass); rate 0.0156 kg/ha,1.0
same,herbicidal rating ECHCG,ECHCG (Barnyardgrass); rate 0.0313 kg/ha,1.0
same,herbicidal rating ECHCG,ECHCG (Barnyardgrass); rate 0.0625 kg/ha,2.0
same,"herbicidal effect rating, SAGPY",[3]; 0.0313 kg/ha,0.0
same,"herbicidal effect rating, SAGPY",[3]; 0.0625 kg/ha,0.0
same,"herbicidal effect rating, SAGPY",[3]; 0.1250 kg/ha,0.0
same,"herbicidal effect rating, SAGPY",[3]; 0.2500 kg/ha,2.0
same,Preemergence herbicidal rating AMBEL,"AMBEL (Ragweed, Common) [4]; rate 0.0156 kg/ha",0.0
same,Preemergence herbicidal rating AMBEL,"AMBEL (Ragweed, Common) [4]; rate 0.0313 kg/ha",0.0
same,Preemergence herbicidal rating AMBEL,"AMBEL (Ragweed, Common) [4]; rate 0.0625 kg/ha",4.0
same,Preemergence herbicidal rating AMBEL,"AMBEL (Ragweed, Common) [4]; rate 0.1250 kg/ha",2.0
same,Preemergence herbicidal rating AMBEL,"AMBEL (Ragweed, Common) [4]; rate 0.2500 kg/ha",1.0
same,herbicidal rating TRZAWR,[5]; rate 0.0156 kg/ha,2.5
same,herbicidal rating TRZAWR,[5]; rate 0.0313 kg/ha,2.5
same,herbicidal rating TRZAWR,[5]; rate 0.0625 kg/ha,2.5
same,herbicidal rating CASOB,CASOB (Sicklepod) [6]; rate 0.0156 kg/ha,0.0
same,herbicidal rating CASOB,CASOB (Sicklepod) [6]; rate 0.0313 kg/ha,1.0
same,herbicidal rating CASOB,CASOB (Sicklepod) [6]; rate 0.0625 kg/ha,3.0
same,Preemergence herbicidal rating GLXMAW,[7]; rate 0.0156 kg/ha,1.0
same,Preemergence herbicidal rating GLXMAW,[7]; rate 0.0313 kg/ha,0.0
same,Preemergence herbicidal rating GLXMAW,[7]; rate 0.0625 kg/ha,0.0
same,Preemergence herbicidal rating GLXMAW,[7]; rate 0.1250 kg/ha,0.0
same,Preemergence herbicidal rating GLXMAW,[7]; rate 0.2500 kg/ha,1.0
same,Preemergence herbicidal rating IPOHE,[8]; rate 0.0156 kg/ha,0.0
same,Preemergence herbicidal rating IPOHE,[8]; rate 0.0313 kg/ha,0.0
same,Preemergence herbicidal rating IPOHE,[8]; rate 0.0625 kg/ha,0.0
same,Preemergence herbicidal rating IPOHE,[8]; rate 0.1250 kg/ha,1.0
same,Preemergence herbicidal rating IPOHE,[8]; rate 0.2500 kg/ha,2.0
same,herbicidal rating IPOHE,[9]; rate 0.0156 kg/ha,7.0
same,herbicidal rating IPOHE,[9]; rate 0.0313 kg/ha,7.0
same,herbicidal rating IPOHE,[9]; rate 0.0625 kg/ha,9.0
same,herbicidal rating AMBEL,"AMBEL (Ragweed, Common) [10]; rate 0.0156 kg/ha",9.0
same,herbicidal rating AMBEL,"AMBEL (Ragweed, Common) [10]; rate 0.0313 kg/ha",9.0
same,herbicidal rating AMBEL,"AMBEL (Ragweed, Common) [10]; rate 0.0625 kg/ha",9.0
same,herbicidal rating GLXMAW,[11]; rate 0.0156 kg/ha,5.0
same,herbicidal rating GLXMAW,[11]; rate 0.0313 kg/ha,5.0
same,herbicidal rating GLXMAW,[11]; rate 0.0625 kg/ha,5.5
same,Preemergence herbicidal rating CASOB,CASOB (Sicklepod) [12]; rate 0.0156 kg/ha,1.0
same,Preemergence herbicidal rating CASOB,CASOB (Sicklepod) [12]; rate 0.0313 kg/ha,0.0
same,Preemergence herbicidal rating CASOB,CASOB (Sicklepod) [12]; rate 0.0625 kg/ha,2.0
same,Preemergence herbicidal rating CASOB,CASOB (Sicklepod) [12]; rate 0.1250 kg/ha,1.0
same,Preemergence herbicidal rating CASOB,CASOB (Sicklepod) [12]; rate 0.2500 kg/ha,0.0
